These results are taken from ChEMBL document CHEMBL4699466, “Isolation, reactivity, pharmacological activities and total synthesis of hispanolone and structurally related diterpenes from Labiatae plants” (Bioorg Med Chem Lett, 2020).

One assay deals with RAW264.7. Description: Antiinflammatory activity against mouse RAW264.7 cells assessed as inhibition of LPS-induced nitrite accumulation at 10 uM preincubated for 30 mins followed by LPS-stimulation and measured after 24 hrs by Griess reagent based assay relative to control. In kind it is functional. Also noted: scale not given: the % may be the effect or the level left. The conditions noted are these: time 24.5 hrs. For orientation: Griess reagent forms a coloured azo dye with nitrite.

Assay [1] concerns Neutrophil. Description: Antiinflammatory activity in human neutrophils assessed as inhibition of fMLF/cytochalasin B-induced superoxide anion generation. In kind it is functional, cell-based.
A further assay deals with T1, Acetylcholinesterase (Rattus norvegicus, UniProt P37136).
T1 sequence (P37136 whole entry): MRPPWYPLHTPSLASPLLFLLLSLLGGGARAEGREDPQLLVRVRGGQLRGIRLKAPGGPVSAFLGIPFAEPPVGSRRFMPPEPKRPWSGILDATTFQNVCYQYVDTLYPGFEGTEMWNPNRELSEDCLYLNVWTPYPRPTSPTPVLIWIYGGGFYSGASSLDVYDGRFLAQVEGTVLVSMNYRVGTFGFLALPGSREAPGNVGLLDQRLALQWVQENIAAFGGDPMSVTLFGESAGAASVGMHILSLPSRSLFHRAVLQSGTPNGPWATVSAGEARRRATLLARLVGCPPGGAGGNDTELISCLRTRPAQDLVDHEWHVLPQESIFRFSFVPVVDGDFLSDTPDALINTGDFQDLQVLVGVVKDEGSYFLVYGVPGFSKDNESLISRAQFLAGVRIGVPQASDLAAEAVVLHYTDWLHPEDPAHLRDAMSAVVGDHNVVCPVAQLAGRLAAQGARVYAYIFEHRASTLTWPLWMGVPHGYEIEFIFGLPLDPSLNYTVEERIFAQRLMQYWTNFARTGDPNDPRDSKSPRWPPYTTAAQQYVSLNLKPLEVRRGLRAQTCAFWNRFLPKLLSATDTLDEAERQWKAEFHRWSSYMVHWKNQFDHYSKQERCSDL
Description: Inhibition of Sprague-Dawley rat acetylcholinesterase using acetylthiocholine iodide as substrate measured at 30 secs for 5 mins by Ellman's method. In general terms: Ellman's reagent forms a yellow product with free thiols.

The test system of assay [2] is Neutrophil. As to the kind of experiment: Antiinflammatory activity in human neutrophils assessed as inhibition of elastase release. It counts as functional, cell-based.
A further assay deals with T2, Sulfotransferase 1E1 (Homo sapiens, UniProt P49888).
T2 sequence (P49888 whole entry): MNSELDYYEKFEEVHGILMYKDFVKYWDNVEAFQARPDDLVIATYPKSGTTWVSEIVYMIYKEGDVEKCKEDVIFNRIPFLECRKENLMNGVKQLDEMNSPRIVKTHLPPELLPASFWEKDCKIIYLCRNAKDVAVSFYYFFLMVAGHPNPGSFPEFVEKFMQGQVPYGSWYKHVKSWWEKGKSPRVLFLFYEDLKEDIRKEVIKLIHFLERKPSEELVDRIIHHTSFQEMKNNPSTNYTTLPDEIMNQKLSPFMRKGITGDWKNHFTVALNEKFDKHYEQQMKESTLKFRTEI
Description: Inhibition of estrogen sulfotransferase in human liver cytosol incubated for 30 mins in presence of [3H]-estradiol and adenosine -3'-phosphate 5'-phosphosulfate by liquid scintillation counting method. It counts as subcellular.

Assay [3] concerns Neutrophil. Description: Antiinflammatory activity in human neutrophils assessed as inhibition of fMLF/cytochalasin B-induced superoxide anion generation at 10 uM relative to control. It counts as functional. Details: scale not given: the % may be the effect or the level left.
Assay [4] deals with Neutrophil. Description: Antiinflammatory activity in human neutrophils assessed as inhibition of elastase release at 10 uM relative to control. In kind it is functional. Also noted: scale not given: the % may be the effect or the level left.
The nature of assay [5]: Metal chelating activity of the compound assessed as Fe2+-compound complex formation at 0.250 mg/ml incubated for 10 mins in presence of ferrozine solution relative to control. The settings on record: dose 0.25 mg/ml.
The target of assay [6] is 11-beta-hydroxysteroid dehydrogenase 1 (Homo sapiens) (UniProt P28845). Description: Inhibition of human 11beta-HSD1 expressed in HEK-293 cells assessed as residual activity at […] using radiolabeled cortisone as substrate by scintillation counting. In kind it is cell-based. The settings on record: HEK293.
11-beta-hydroxysteroid dehydrogenase 1 (Homo sapiens), sequence (P28845 whole entry, looked up): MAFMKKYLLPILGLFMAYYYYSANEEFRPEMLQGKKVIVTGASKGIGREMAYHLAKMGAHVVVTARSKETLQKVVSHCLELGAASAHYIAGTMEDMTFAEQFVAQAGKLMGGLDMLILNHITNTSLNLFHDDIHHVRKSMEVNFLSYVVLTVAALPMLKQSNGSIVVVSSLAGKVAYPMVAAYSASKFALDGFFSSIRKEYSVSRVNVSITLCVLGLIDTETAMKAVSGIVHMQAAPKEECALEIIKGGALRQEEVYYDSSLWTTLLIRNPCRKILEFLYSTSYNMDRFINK
For the next assay, the species on record is Mus musculus. Description: cells. The settings on record: Swiss-Taconi.
Assay [7] is described as follows: Metal chelating activity of the compound assessed as Fe2+-compound complex formation at 1 mg/ml incubated for 10 mins in presence of ferrozine solution relative to control.
Assay [8] can be described thus: Metal chelating activity of the compound assessed as Fe2+-compound complex formation at 0.500 mg/ml incubated for 10 mins in presence of ferrozine solution relative to control. The settings on record: dose 0.5 mg/ml.
Assay [9] is described as follows: Antagonist activity at PAF receptor in rabbit platelet membrane assessed as inhibition of [3H]-PAF binding to PAF receptor. It counts as cell membranes, Oryctolagus cuniculus, Cell membrane.

Description for Mus musculus: Antiinflammatory activity in Swiss-Taconi mouse assessed as reduction in TPA-induced ear edema

Regarding `CCC1=C(Cc2ccoc2)C(=O)[C@@]2(C)CCCC(C)(C)[C@@H]2C1`, in the assay with RAW264.7, the Activity is recorded as 35.53%.
In general, IC50 refers to the concentration that gives 50% inhibition. Regarding `CC1=C(CCc2ccoc2)[C@@]2(C)CCCC(C)(C)[C@@H]2CC1=O`, the IC50 in the assay on Neutrophil [1] is 8.48 µM; at Acetylcholinesterase it was 38.5 µM; with Neutrophil [2], 5.42 µM; on Sulfotransferase 1E1, 19.8 µM. Also, the values for the Activity in the assay with Neutrophil [3] and in the assay on Neutrophil [4] were 58.43% and 70.06%, respectively.
As for `C[C@@H]1C(=O)C[C@H]2C(C)(C)CCC[C@]2(C)[C@@]1(O)CCc1ccoc1`, the Activity in [5] was determined as 96%; in assay [6], 20%; in assay [7] it was 97.3%; in [8], 97%. In addition, in the assay filed under Mus musculus, half-maximal inhibition (IC50) was put at 1.05 µM.
With `C[C@@H]1C(=O)C[C@H]2C(C)(C)CCC[C@]2(C)[C@@]12CC[C@]1(C=COC1)O2`, the IC50 in [9] turned out to be 4 µM.
`CC1=C(CCC2=CC(=O)OC2O)[C@@]2(C)CCCC(C)(C)[C@@H]2CC1=O` (some centres undefined): the Activity with RAW264.7 is recorded as 84.1%.
